Measurements from patent publication US20260184687A1, “DIHYDROINDENE DERIVATIVES AS MALT1 INHIBITORS” (C4X Discovery Limited, priority 2022, published 2026).

How the values were obtained:
[1] = test system: IL-2 release from stimulated Jurkat cells; assay: Human IL-2 Release Phenotypic Assay (Assay 3); format: cell-based; conditions: Jurkat cells (clone E6-1), 200 ng/mL PMA + 300 ng/mL ionomycin, IL-2 by ELISA
Method: This assay measured the inhibition by MALT1 inhibitors of the IL-2 release from stimulated Jurkat cells, a human immortalized T lymphocyte cell line. IL-2 production from Jurkat cells is regulated by activation of NFκB signalling, which is in turn regulated by MALT1 protease activity.
Jurkat cells (clone E6-1, ATCC) were cultured in RPMI1640 supplemented with 10% (v/v) FBS and 1% (v/v) penicillin/streptomycin (100× liquid stocks). Cells were seeded in 96-well white tissue culture-treated plates (Perkin Elmer) at 50 000 cells/well and incubated overnight at 37° C., 5% CO2. Test compounds in DMSO at half-log dilutions were added to the cells and incubated for 30 mins. Final DMSO concentration was 0.5%. Cells were then stimulated with 200 ng/mL PMA+300 ng/mL ionomycin and incubated for 48 hours. […] IC50 values were calculated using GraphPad Prism using 4-parameter non-linear regression curve fit.

[2] = target: T1, FL hMALT1 enzyme (Homo sapiens, UniProt Q9UDY8); assay: biochemical;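 note: Cell-free protease assay: enzyme preincubated with compound 30 min at room temperature, then cleavage of fluorogenic Ac-LVSR-AMC substrate (100 µM) tracked by fluorescence (ex 360/em 460 nm)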
T1 sequence (Q9UDY8 1-824): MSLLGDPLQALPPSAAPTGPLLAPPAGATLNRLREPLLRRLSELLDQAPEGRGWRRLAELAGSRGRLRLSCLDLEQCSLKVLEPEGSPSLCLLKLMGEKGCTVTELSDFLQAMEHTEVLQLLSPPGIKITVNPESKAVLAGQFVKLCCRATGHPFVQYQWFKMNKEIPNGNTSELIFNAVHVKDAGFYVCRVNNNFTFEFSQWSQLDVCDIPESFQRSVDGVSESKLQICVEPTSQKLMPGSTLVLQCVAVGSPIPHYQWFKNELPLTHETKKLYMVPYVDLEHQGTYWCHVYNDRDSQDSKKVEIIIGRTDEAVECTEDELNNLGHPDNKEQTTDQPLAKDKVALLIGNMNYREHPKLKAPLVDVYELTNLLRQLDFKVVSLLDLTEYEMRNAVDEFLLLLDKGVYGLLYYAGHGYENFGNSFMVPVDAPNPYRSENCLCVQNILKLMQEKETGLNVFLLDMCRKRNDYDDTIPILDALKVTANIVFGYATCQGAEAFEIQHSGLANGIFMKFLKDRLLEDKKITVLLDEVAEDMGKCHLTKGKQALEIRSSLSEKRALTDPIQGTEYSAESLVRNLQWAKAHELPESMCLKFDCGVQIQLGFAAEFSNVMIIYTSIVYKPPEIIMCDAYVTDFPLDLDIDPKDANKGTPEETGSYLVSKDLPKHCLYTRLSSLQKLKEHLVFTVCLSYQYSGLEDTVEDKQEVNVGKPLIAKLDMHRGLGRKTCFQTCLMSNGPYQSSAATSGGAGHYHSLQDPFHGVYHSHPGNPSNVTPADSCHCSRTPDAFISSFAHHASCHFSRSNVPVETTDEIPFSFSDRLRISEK

| IC50 [2] [µM] | Structure (SMILES) | also measured |
| --- | --- | --- |
| 0.12 | CN(C(=O)C1(NS(C)(=O)=O)CC1)[C@@H](c1ccc(NC2Cc3ccc(Cl)c(F)c3C2)cn1)C(F)(F)F (stereo partly drawn) [Example 290, N-((1S)-1-(5-((5-Chloro-4-fluoro-2,3-dihydro-1H-inden-2-yl)amino)pyridin-2-yl)-2,2,2-trifluoroethyl)-N-methyl-1-(methylsulfonamido)-cyclopropane-1-carboxamide] |  |
| 0.34 | CN(C(=O)C1CCS(=O)(=O)CC1)[C@@H](c1ccc(NC2Cc3cc(Cl)c(OC(F)F)cc3C2)cn1)C(F)(F)F (stereo partly drawn) [Example 291, N-((1S)-1-(5-((5-Chloro-6-(difluoromethoxy)-2,3-dihydro-1H-inden-2-yl)amino)pyridin-2-yl)-2,2,2-trifluoroethyl)-N-methyltetrahydro-2H-thiopyran-4-carboxamide 1,1-dioxide] |  |
| 0.43 | CN(C(=O)C1CCS(=O)(=O)CC1)[C@@H](c1ccc(NC2Cc3cc(F)c(Br)cc3C2)cn1)C(F)(F)F (stereo partly drawn) [Example 310, N-((1S)-1-(5-((5-Bromo-6-fluoro-2,3-dihydro-1H-inden-2-yl)amino)pyridin-2-yl)-2,2,2-trifluoroethyl)-N-methyltetrahydro-2H-thiopyran-4-carboxamide 1,1-dioxide] |  |
| 0.07 | CNC(=O)[C@H]1C[C@H](C(=O)N(C)[C@@H](c2ccc(NC3Cc4ccc(Cl)c(Cl)c4C3)cn2)C(F)(F)F)C1 (stereo partly drawn) [Example 363, (1,3-trans)-N^1-((1S)-1-(5-((4,5-Dichloro-2,3-dihydro-1H-inden-2-yl)amino)pyridin-2-yl)-2,2,2-trifluoroethyl)-N^1,N^3-dimethylcyclobutane-1,3-dicarboxamide] |  |
| 0.072 | CC(C)c1c(Cl)ccc2c1CC(Nc1ccc([C@H](N(C)C(=O)C3CCS(=O)(=O)CC3)C(F)(F)F)nc1)C2 (stereo partly drawn) [Example 369, N-((1S)-1-(5-((5-Chloro-4-isopropyl-2,3-dihydro-1H-inden-2-yl)amino)pyridin-2-yl)-2,2,2-trifluoroethyl)-N-methyltetrahydro-2H-thiopyran-4-carboxamide 1,1-dioxide] |  |

The next lines start with the compound.

| Structure (SMILES) | IC50 [2] [µM] | also measured |
| --- | --- | --- |
| CN(C(=O)N1CCC(C)(O)CC1)[C@@H](c1ccc(NC2Cc3ccccc3C2(C)C)cc1)C(F)(F)F (single isomer, unassigned) [Example 16] |  | IC50 ([1]; 48 hours): 0.25 µM |
| CN(C(=O)N1CCC(C)(O)CC1)[C@@H](c1ccc(NC2Cc3ccccc3C2(C)C)cc1)C(F)(F)F (single isomer, unassigned) [Example 17] |  | IC50 ([1]; 48 hours): 2.95 µM |
| CN(C(=O)c1cc[nH]c(=O)c1)C(c1ccc(NC2Cc3ccccc3C2(C)C)nc1)C(F)(F)F (single isomer, unassigned) [Example 100, N-(1-(6-((1,1-Dimethyl-2,3-dihydro-1H-inden-2-yl)amino)pyridin-3-yl)-2,2,2-trifluoroethyl)-N-methyl-2-oxo-1,2-dihydropyridine-4-carboxamide] |  | IC50 ([1]; 48 hours): 0.85 µM |
| CN(C(=O)c1cc[nH]c(=O)c1)C(c1ccc(NC2Cc3ccccc3C2(C)C)nc1)C(F)(F)F (single isomer, unassigned) [Example 101, N-(1-(6-((1,1-Dimethyl-2,3-dihydro-1H-inden-2-yl)amino)pyridin-3-yl)-2,2,2-trifluoroethyl)-N-methyl-2-oxo-1,2-dihydropyridine-4-carboxamide] |  | IC50 ([1]; 48 hours): 2.64 µM |
| CN(C(=O)C1CCS(=O)(=O)CC1)[C@@H](c1ccc(NC2Cc3ccccc3C2)cc1)C(F)(F)F [Example 3, (S)—N-(1-(4-((2,3-Dihydro-1H-inden-2-yl)amino)phenyl)-2,2,2-trifluoroethyl)-N-methyltetrahydro-2H-thiopyran-4-carboxamide 1,1-dioxide] |  | IC50 ([1]; Homo sapiens, Jurkat, 48 h): 1.94 µM |
| CN(C(=O)[C@@H]1CNC(=O)C1)[C@@H](c1ccc(N[C@H]2Cc3ccccc3C2(C)C)cn1)C(F)(F)F [Example 160, (S)—N—((S)-1-(5-(((S)-1,1-Dimethyl-2,3-dihydro-1H-inden-2-yl)amino)pyridin-2-yl)-2,2,2-trifluoroethyl)-N-methyl-5-oxopyrrolidine-3-carboxamide] |  | IC50 ([1]; Homo sapiens, Jurkat, 48 h): 0.18 µM |
| CN(C(=O)[C@H]1CNC(=O)C1)[C@@H](c1ccc(N[C@H]2Cc3ccccc3C2(C)C)cn1)C(F)(F)F [Example 166, (R)—N—((S)-1-(5-(((S)-1,1-Dimethyl-2,3-dihydro-1H-inden-2-yl)amino)pyridin-2-yl)-2,2,2-trifluoroethyl)-N-methyl-5-oxopyrrolidine-3-carboxamide] |  | IC50 ([1]; Homo sapiens, Jurkat, 48 h): 0.51 µM |
| CC(=O)N1CC[C@H](C(=O)N(C)[C@@H](c2ccc(N[C@H]3Cc4ccccc4C3(C)C)cn2)C(F)(F)F)C1 [Example 169, (S)-1-Acetyl-N—((S)-1-(5-(((S)-1,1-dimethyl-2,3-dihydro-1H-inden-2-yl)amino)pyridin-2-yl)-2,2,2-trifluoroethyl)-N-methylpyrrolidine-3-carboxamide] |  | IC50 ([1]; Homo sapiens, Jurkat, 48 h): 0.72 µM |
| CNC(=O)C12C3C4C1C1C2C3C41C(=O)N(C)[C@@H](c1ccc(NC2Cc3ccc(Cl)cc3C2)cn1)C(F)(F)F (stereo partly drawn) [Example 292, N^1-((1S)-1-(5-((5-Chloro-2,3-dihydro-1H-inden-2-yl)amino)pyridin-2-yl)-2,2,2-trifluoroethyl)-N^1,N^4-dimethylcubane-1,4-dicarboxamide] | 0.84 |  |
| CN(C(=O)C1CNC(=O)O1)[C@@H](c1ccc(N[C@H]2Cc3ccc(Cl)cc3C2)cn1)C(F)(F)F (stereo partly drawn) [Example 303, N—((S)-1-(5-(((S)-5-Chloro-2,3-dihydro-1H-inden-2-yl)amino)pyridin-2-yl)-2,2,2-trifluoroethyl)-N-methyl-2-oxooxazolidine-5-carboxamide] | 0.19 |  |
| CN(C(=O)C1CCS(=O)(=O)CC1)[C@@H](c1ccc(NC2Cc3ccc(OC(F)F)cc3C2)cn1)C(F)(F)F (stereo partly drawn) [Example 324, N-((1S)-1-(5-((5-(Difluoromethoxy)-2,3-dihydro-1H-inden-2-yl)amino)pyridin-2-yl)-2,2,2-trifluoroethyl)-N-methyltetrahydro-2H-thiopyran-4-carboxamide 1,1-dioxide] | 1 |  |
| CN(C(=O)C1CCS(=O)(=O)CC1)[C@@H](c1ccc(NC2Cc3cccc(OC(F)F)c3C2)cn1)C(F)(F)F (stereo partly drawn) [Example 333, N-((1S)-1-(5-((4-(Difluoromethoxy)-2,3-dihydro-1H-inden-2-yl)amino)pyridin-2-yl)-2,2,2-trifluoroethyl)-N-methyltetrahydro-2H-thiopyran-4-carboxamide 1,1-dioxide] | 0.16 |  |
| CN(C(=O)C1CS(=O)(=O)C1)[C@@H](c1ccc(NC2Cc3ccc(Cl)c(Cl)c3C2)cn1)C(F)(F)F (stereo partly drawn) [Example 355, N-((1S)-1-(5-((4,5-Dichloro-2,3-dihydro-1H-inden-2-yl)amino)pyridin-2-yl)-2,2,2-trifluoroethyl)-N-methylthietane-3-carboxamide 1,1-dioxide] | 0.15 |  |
| COCc1c(Cl)ccc2c1CC(Nc1ccc([C@H](N(C)C(=O)C3CCS(=O)(=O)CC3)C(F)(F)F)nc1)C2 (stereo partly drawn) [Example 356, N-((1S)-1-(5-((5-Chloro-4-(methoxymethyl)-2,3-dihydro-1H-inden-2-yl)amino)pyridin-2-yl)-2,2,2-trifluoroethyl)-N-methyltetrahydro-2H-thiopyran-4-carboxamide 1,1-dioxide] | 0.21 |  |
| CNC(=O)C1(C(=O)N(C)[C@@H](c2ccc(NC3Cc4ccc(Cl)c(F)c4C3)cn2)C(F)(F)F)CC1 (stereo partly drawn) [Example 368, N-((1S)-1-(5-((5-Chloro-4-fluoro-2,3-dihydro-1H-inden-2-yl)amino)pyridin-2-yl)-2,2,2-trifluoroethyl)-N,N′-dimethylcyclopropane-1,1-dicarboxamide] | 0.27 |  |
